A short description of data set [1]: Cmax in male Sprague-Dawley rat at 0.1 mg/kg, po measured upto 8 hrs by LC-MS/MS analysis. Conditions: in vivo; call rule not given here.
Data set [2] in a line: AUC (0 to 8 hrs) in male Sprague-Dawley rat at 0.1 mg/kg, iv measured upto 8 hrs by LC-MS/MS analysis. Format: ADME, organism-based. The note with it: in vivo.
Data set [3] can be described thus: C0 in male Sprague-Dawley rat at 0.1 mg/kg, iv measured upto 8 hrs by LC-MS/MS analysis. The note with it: in vivo.
Data set [4] can be described thus: Oral bioavailability in male Sprague-Dawley rat at 0.1 mg/kg measured upto 8 hrs by LC-MS/MS analysis. Format: ADME, organism-based. Conditions: in vivo.
Data set [5] is described as follows: Volume of distribution at steady state in male Sprague-Dawley rat at 0.1 mg/kg, iv measured upto 8 hrs by LC-MS/MS analysis. Format: ADME, organism-based. Conditions: in vivo.
A short description of data set [6]: Tmax in male Sprague-Dawley rat at 0.1 mg/kg, po measured […] by LC-MS/MS analysis. The note with it: in vivo. Format: ADME, organism-based.
A short description of data set [7]: Total clearance in male Sprague-Dawley rat at 0.1 mg/kg, iv measured upto 8 hrs by LC-MS/MS analysis. Format: ADME, organism-based. Conditions: in vivo.
A short description of data set [8]: AUC (0 to 8 hrs) in male Sprague-Dawley rat at 0.1 mg/kg, po measured upto 8 hrs by LC-MS/MS analysis. Format: ADME, organism-based. Conditions: in vivo.
Another data set deals with Albumin (Homo sapiens, UniProt P02768). The experiment in a line: Binding affinity to serum albumin in human plasma. Format: ADME, cell-free.
Chain of Albumin (P02768 whole entry): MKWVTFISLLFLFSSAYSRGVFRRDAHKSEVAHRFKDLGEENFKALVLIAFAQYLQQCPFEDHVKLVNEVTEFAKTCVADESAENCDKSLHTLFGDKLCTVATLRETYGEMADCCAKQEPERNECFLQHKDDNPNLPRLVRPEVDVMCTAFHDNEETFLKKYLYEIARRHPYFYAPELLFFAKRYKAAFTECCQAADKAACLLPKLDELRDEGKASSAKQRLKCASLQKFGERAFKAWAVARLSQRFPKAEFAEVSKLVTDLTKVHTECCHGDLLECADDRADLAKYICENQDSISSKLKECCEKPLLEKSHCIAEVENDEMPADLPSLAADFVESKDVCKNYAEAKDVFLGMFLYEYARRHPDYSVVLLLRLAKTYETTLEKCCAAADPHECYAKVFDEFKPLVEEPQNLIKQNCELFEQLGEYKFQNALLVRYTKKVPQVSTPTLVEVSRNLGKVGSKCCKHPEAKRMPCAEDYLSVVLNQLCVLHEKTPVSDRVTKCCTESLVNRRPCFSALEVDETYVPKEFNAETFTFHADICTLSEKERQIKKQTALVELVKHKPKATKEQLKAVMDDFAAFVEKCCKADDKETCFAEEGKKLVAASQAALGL
The nature of data set [9]: Solubility of compound at pH 1.2 incubated for 4 hrs by HPLC or LC-MS/MS analysis. Format: physicochemical. Conditions: buffer, pH 1.2, 4 h.
Data set [10] is described as follows: Plasma protein binding in rat assessed as unbound fraction at 1 uM incubated for 6 hrs by LC/MS/MS based equilibrium dialysis method. Format: ADME, cell-free.
The nature of data set [11]: Solubility of compound at pH 6.8 incubated for 4 hrs by HPLC or LC-MS/MS analysis. Format: physicochemical. The note with it: buffer, pH 6.8, 4 h.
For data set [12], the target named is Transthyretin (Homo sapiens, UniProt P02766, V50M). The experiment in a line: Binding affinity to TTR V30M mutant (unknown origin) assessed as dissociation constant by ITC analysis.
In data set [13] the target is Transthyretin (Homo sapiens, UniProt P02766). Briefly: Binding affinity to TTR in human plasma assessed as target occupancy incubated for 6 hrs in presence of E)-S-phenyl 3-(4-hydroxy-3,5-dimethyistyryl)benzothioate by fluorescence based competitive binding assay. Format: cell-free.
The conditions of data set [14]: pampa, 4 h, 500 µM.

This is an account of results in ChEMBL document CHEMBL5543166, “Development of Benziodarone Analogues with Enhanced Potency for Selective Binding to Transthyretin in Human Plasma” (J Med Chem, 2024).

≈ marks a conversion by molar mass, not a printed value. Bounds are passed on as bounds.

`O=C(O)c1ccc2nc(-c3cc(Cl)cc(Cl)c3)oc2c1` returned a Cmax in data set [1] of 235 ng/mL. Also, the area under the curve (AUC) in data set [2] stood at 2363 ng·h/mL; in data set [8], 1500 ng·h/mL. In data set [3], the C0 at 8 h was found to be 519 ng/mL. In [4], this compound registered a bioavailability of 63.5%. In data set [5], the Vdss came out at 0.311 L/kg. The Tmax in [6] was 4 h. In data set [7], this compound had a CL of 0.0993 mL/min/kg. The result at Albumin was Active.

In the case of `CCc1oc2cccc(Cl)c2c1C(=O)c1cc(I)c(O)c(I)c1`, the Cmax in [1] stood at 395 ng/mL. The AUC in data set [2] worked out at 3726 ng·h/mL; in data set [8], 2524 ng·h/mL. In data set [3], this compound showed a C0 at 8 h of 1720 ng/mL. In addition, the Vdss in data set [5] is 0.112 L/kg. Besides, the solubility in data set [9] is less than 0.01 µM; in [11], greater than 100 µM. The Tmax in [6] is 4 h. In data set [7], the CL stood at 0.343 mL/min/kg. For the same compound, in data set [10], the Fu is recorded as less than 0.01%.

The compound `CCc1oc2cccc(I)c2c1C(=O)c1cc(I)c(O)c(I)c1` displayed a peak concentration (Cmax) in data set [1] of 240 ng/mL. Besides, the AUC in data set [2] was 2961 ng·h/mL; in [8], 1489 ng·h/mL. In [3], the C0 at 8 h was found to be 1540 ng/mL. In data set [5], this compound gave a Vdss of 0.153 L/kg. The solubility in data set [9] was less than 0.02 µM; in [11], greater than 100 µM. Further, in data set [6], the time to peak (Tmax) amounted to 4 h. The CL in [7] is 0.405 mL/min/kg. Also, the Fu in [10] is given as less than 0.01%. Also, on Albumin, the outcome was Active.

Take `CCc1oc2cccc(C)c2c1C(=O)c1cc(I)c(O)c(I)c1`: the Cmax in data set [1] stood at 303 ng/mL. For the same compound, the AUC in data set [2] came out at 3102 ng·h/mL; in data set [8] it was 1918 ng·h/mL. This compound also returned a C0 at 8 h in data set [3] of 1640 ng/mL. The compound also displayed a Vdss in data set [5] of 0.123 L/kg. In addition, the solubility in data set [9] was less than 0.01 µM; in data set [11], greater than 100 µM. Also, the Tmax in data set [6] worked out at 4 h. For the same compound, the CL in data set [7] was found to be 0.44 mL/min/kg. Further, the Fu in [10] was less than 0.01%.

Regarding `CCc1oc2c(Cl)ccc(Cl)c2c1C(=O)c1cc(I)c(O)c(I)c1`, in [1], the Cmax stood at 77 ng/mL. Also, the AUC in data set [2] was determined as 1746 ng·h/mL; in data set [8] it was 350 ng·h/mL. In [3], this compound yielded a C0 at 8 h of 1340 ng/mL. Also, the Vdss in [5] came out at 0.269 L/kg. For the same compound, the results for the solubility in data set [9] and in data set [11] were less than 0.02 µM and 89.5 µM (≈ 52.5 µg/mL), respectively. For the same compound, the time to peak (Tmax) in data set [6] is 4 h. In data set [7], the CL stood at 0.662 mL/min/kg. The Fu in data set [10] is less than 0.01%.

The compound `CCc1oc2cccc(Br)c2c1C(=O)c1cc(I)c(O)c(I)c1` displayed a Cmax in data set [1] of 390 ng/mL. Further, the AUC in data set [2] was 3708 ng·h/mL; in [8], 2476 ng·h/mL. Further, the C0 at 8 h in data set [3] turned out to be 1740 ng/mL. For the same compound, the Vdss in [5] was determined as 0.113 L/kg. The solubility is 0.054 µM (≈ 0.0322 µg/mL) in [9] and greater than 100 µM in data set [11]. Besides, in [6], the Tmax came to 4 h. Also, the CL in [7] came out at 0.343 mL/min/kg. In addition, the Fu in data set [10] is reported as less than 0.01%.

Consider `CCc1oc2ccccc2c1C(=O)c1cc(I)c(O)c(I)c1` [BENZIODARONE], for which, on Transthyretin [12], the dissociation constant Kd was 0.078 µM. In addition, the EC50 on Transthyretin [13] amounted to 8.9 µM. Besides, at Albumin, the outcome was Active.

With `COCCc1ccc(OCC(O)CNC(C)C)cc1` (stereo not given) [METOPROLOL], in [14], the permeability is 1.8 10^-6 cm/s.

Turning to `O=C(O)c1cc(/N=N/c2ccc(S(=O)(=O)Nc3ccccn3)cc2)ccc1O` [SULFASALAZINE], the permeability in data set [14] is 0.038 10^-6 cm/s.
